Results taken from US20110045101A1, “FUNGICIDAL SUBSTITUTED AZOLES” (E.I. Du Pont De Nemours and Company, priority 2009, published 2011).
Marks after values point to notes of the source that are not given here.

Experiments:
Format in all cases: in vivo
[1] = test system: Botrytis cinerea; experiment: Test C: tomato Botrytis on tomato seedlings, sprayed the day before inoculation, visual disease rating; details: 100 = 100% disease control
Outline: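 Rate: 200 ppm sprayed to run-off, corresponding to 500 g/ha; flagged values used 40 ppm. Vehicle was aqueous acetone (1:1) plus 250 ppm surfactant, compounds predissolved in acetone at 3% of volume. Plants were tomato seedlings.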

[2] = test system: Alternaria solani; experiment: Test D: tomato early blight, sprayed the day before inoculation, visual disease rating; details: 100 = 100% disease control
Outline: (§1)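 Plants received a run-off spray at 200 ppm (equivalent to 500 g/ha) or, for starred values, 40 ppm. Formulation used acetone at 3% of volume in a 50/50 acetone/water mix carrying 250 ppm Trem® 014.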

[3] = test system: Septoria nodorum; experiment: Test F: wheat glume blotch on wheat seedlings, sprayed the day before inoculation, visual disease rating; details: 100 = 100% disease control
Outline: as §1

[4] = test system: Septoria tritici; experiment: Test G: wheat leaf blotch on wheat seedlings, sprayed the day before inoculation, visual disease rating; details: 100 = 100% disease control
Outline: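 Seedlings receive a protective spray of test suspension in acetone/water carrying 250 ppm surfactant, mostly at 200 ppm and at 40 ppm where marked. They are inoculated the next day, kept saturated at 24° C for 48 h, then held at 20° C for 19 days before visual scoring.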

[5] = test system: Puccinia recondita f. sp. tritici; experiment: Test H: wheat leaf rust, test suspension sprayed after inoculation of wheat seedlings, visual disease rating; details: 200 ppm, 100 = 100% disease control
Source text: General protocol for preparing test suspensions for Tests A-J: The test compounds were first dissolved in acetone in an amount equal to 3% of the final volume and then suspended at the desired concentration (in ppm) in acetone and purified water (50/50 mix) containing 250 ppm of the surfactant Trem® 014 (polyhydric alcohol esters). The resulting test suspensions were then used in tests A-J. Spraying a 200 ppm test suspension to the point of run-off on the test plants was the equivalent of a rate of 500 g/ha. […] Wheat seedlings were inoculated with a spore suspension of Puccinia recondita f. sp. tritici (the causal agent of wheat leaf rust) and incubated in a saturated atmosphere at 20° C. for 24 h, and then moved to a growth chamber at 20° C. for 2 days. […] A dash (-) indicates no test results. All results are for 200 ppm except where followed by “*”, which indicates 40 ppm.

[6] = test system: Puccinia recondita f. sp. tritici; experiment: Test I: wheat leaf rust on wheat seedlings, sprayed the day before inoculation, visual disease rating; details: 100 = 100% disease control
Outline: as §1

[7] = test system: Erysiphe graminis f. sp. tritici; experiment: Test J: wheat powdery mildew on wheat seedlings, sprayed the day before inoculation, visual disease rating; details: 100 = 100% disease control
Outline: as §1

[8] = 200 ppm, 0 = no control relative to controls
[9] = 0 = no control relative to controls
[10] = 40 ppm (marked *), 0 = no control

Row | Compound | Test C disease control rating [1, 8] [%] | Test D disease control rating [2, 8] [%] | Test F disease control rating [3, 8] [%] | Test G disease control rating [4, 8] [%] | Test H disease control rating [5, 9] [%] | Test I disease control rating [6, 8] [%] | Test J disease control rating [7, 8] [%] | other results
1 | Cc1ncn(-c2ccc(Cl)c(F)c2)c1-c1cccnc1Cl [compound 348] | 0 | 0 | 0 | 8 | 0 | 0 | 27 | 
2 | COc1cc(F)c(-c2c(Cl)nc(Cl)n2-c2cncc(F)c2)c(F)c1 [compound 728] | 100 | 100 | 100 | 99 | 100 | 100 | 100 | 
3 | Fc1ccc(F)c(-c2c(Cl)nc(Br)n2Cc2ccc(Cl)cc2)c1F [compound 286] |  |  |  |  |  |  |  | Test C disease control rating ([1]; 200 ppm, 0 = no control): 99%; Test D disease control rating ([2]; 200 ppm, 0 = no control): 96%; Test F disease control rating ([3]; 200 ppm, 0 = no control): 79%; Test G disease control rating ([4]; 200 ppm, 0 = no control): 95%; Test H disease control rating ([5]; 0 = no control): 64%; Test I disease control rating ([6]; 200 ppm, 0 = no control): 99%; Test J disease control rating ([7]; 200 ppm, 0 = no control): 100%
4 | Fc1ccc(-n2cnc(Br)c2-c2c(F)cc(F)cc2F)cc1 [compound 507] | 100 | 95 | 0 | 88 | 0 | 100 | 98 | 
5 | Fc1cccc(F)c1-c1c(Cl)nc(Br)n1-c1ccc(Cl)nc1 [compound 711] | 100 | 100 | 99 | 99 | 98 | 99 | 99 | 
6 | Fc1ccc(-n2c(Cl)nc(Br)c2-c2ccc(Cl)cc2)c(Cl)c1 [compound 324] | 99 | 99 | 82 | 93 | 9 | 97 | 99 | 
7 | COc1cc(F)c(-c2c(Cl)nc(C)n2-c2ccc(SC#N)cc2)c(F)c1 [Compound 741, 4-[4-chloro-5-(2,6-difluoro-4-methoxyphenyl)-2-methyl-1H-1-yl]phenyl thiocyanate] | 100 | 99 | 92 |  | 0 | 99 | 72 | 
8 | Cc1nn(C)c(Cc2cccc(F)c2)c1-c1ccc(F)cc1Cl [compound 311] | 98 | 9 | 0 |  | 100 | 99 | 95 | 
9 | Cc1nn(C)c(Cc2ccc(F)cc2)c1-c1ccc(F)cc1Cl [compound 312] | 99 | 82 | 0 |  | 9 | 99 | 92 | 
10 | Cc1nc(C)n(-c2ccc(Cl)cc2)c1-c1c(F)cc(F)cc1F [compound 45] | 100 | 98 | 100 |  | 99 | 100 | 100 | 
11 | Fc1cc(F)c(-c2c(Cl)nc(Cl)n2-c2cccc(OC(F)F)c2)c(F)c1 [compound 597] | 100 | 100 | 97 | 98 | 99 |  | 100 | 
12 | Cc1nn(C)c(Cc2ccc(F)cc2F)c1-c1ccc(F)cc1Cl [Compound 313, 4-(2-chloro-4-fluorophenyl)-5-[(2,4-difluorophenyl)methyl]-1,3-dimethyl-1H-pyrazole] |  |  |  |  |  |  |  | pest or weed control at 200 ppm ([1]; Botrytis cinerea, 120 h, 200 ppm, 0 = no control relative to controls): 99%; pest or weed control at 200 ppm ([2]; Alternaria solani, 168 h, 200 ppm, 0 = no control relative to controls): 100%; pest or weed control at 200 ppm ([3]; Parastagonospora nodorum, 264 h, 200 ppm, 0 = no control relative to controls): 0%; pest or weed control at 200 ppm ([5]; Puccinia recondita, 96 h, 0 = no control relative to controls): 95%; pest or weed control at 200 ppm ([6]; Puccinia recondita, 168 h, 200 ppm, 0 = no control relative to controls): 100%; pest or weed control at 200 ppm ([7]; Blumeria graminis, 168 h, 200 ppm, 0 = no control relative to controls): 99%
13 | Fc1ccc(-c2c(Cl)nc(Br)n2-c2ccc(Cl)c(F)c2)c(Cl)c1 [compound 202] |  |  |  |  |  |  |  | Test C disease control rating ([1]; 200 ppm, 0 = no control): 91%; Test D disease control rating ([2]; 200 ppm, 0 = no control): 61%; Test F disease control rating ([3]; 200 ppm, 0 = no control): 98%; Test G disease control rating ([4]; 200 ppm, 0 = no control): 97%; Test I disease control rating ([6]; 200 ppm, 0 = no control): 98%; Test J disease control rating ([7]; 200 ppm, 0 = no control): 100%
14 | Cc1ccc(-n2c(C)nc(Cl)c2-c2c(F)cccc2F)cc1 [compound 82] | 90 | 100 | 100 | 91 |  | 99 | 100 | 
15 | Cc1ccc(F)c(-c2c(Cl)nc(Br)n2-c2ccc(Cl)cc2)c1F [compound 105] | 98 | 99 | 94 | 94 |  | 99 | 100 | 
16 | COc1cc(F)c(-c2c(C)nc(Cl)n2-c2ccc(Cl)nc2)c(F)c1 [compound 263] |  |  |  |  |  |  |  | Test C disease control rating ([1]; 200 ppm, 0 = no control): 99%; Test D disease control rating ([2]; 200 ppm, 0 = no control): 100%; Test F disease control rating ([3]; 200 ppm, 0 = no control): 100%; Test G disease control rating ([4]; 200 ppm, 0 = no control): 95%; Test I disease control rating ([6]; 200 ppm, 0 = no control): 100%; Test J disease control rating ([7]; 200 ppm, 0 = no control): 100%
17 | Fc1cc(-n2c(Br)nc(Cl)c2-c2c(F)ccc(F)c2F)ccc1Cl [compound 143] | 99 | 100 | 100 | 100 |  | 100 | 100 | 
18 | CCOc1cc(F)c(-c2c(Cl)nc(C)n2-c2ccc(Cl)cc2)c(F)c1 [compound 156] |  |  |  |  |  |  |  | Test C disease control rating [1, 10]: 98* %; Test D disease control rating [2, 10]: 100* %; Test F disease control rating [3, 10]: 99* %; Test G disease control rating [4, 10]: 97* %; Test I disease control rating [6, 10]: 97* %; Test J disease control rating [7, 10]: 99* %
19 | Cc1nc(Cl)n(-c2c(F)cc(F)cc2F)c1-c1ccc(Cl)cc1 [compound 446] |  |  |  |  |  |  |  | Test C disease control rating [1, 10]: 96* %; Test D disease control rating [2, 10]: 100* %; Test F disease control rating [3, 10]: 0* %; Test G disease control rating [4, 10]: 95* %; Test I disease control rating [6, 10]: 68* %; Test J disease control rating [7, 10]: 91* %
20 | Cc1ccc(-n2c(Cl)nc(Cl)c2-c2c(F)cccc2Cl)cc1 [compound 227] |  |  |  |  |  |  |  | Test C disease control rating ([1]; 200 ppm, 0 = no control): 98%; Test D disease control rating ([2]; 200 ppm, 0 = no control): 96%; Test F disease control rating ([3]; 200 ppm, 0 = no control): 0%; Test G disease control rating ([4]; 200 ppm, 0 = no control): 94%; Test I disease control rating ([6]; 200 ppm, 0 = no control): 99%; Test J disease control rating ([7]; 200 ppm, 0 = no control): 99%
21 | Cc1nc(Cl)n(-c2ccc(Cl)c(F)c2)c1-c1c(F)ccc(F)c1F [compound 389] | 98 | 100 | 0 | 91 |  | 99 | 98 | 
22 | Cc1nc(Cl)c(-c2cc(F)ccc2F)n1-c1ccc(Cl)cc1 [compound 93] | 97 | 100 | 100 | 99 |  | 98 | 100 | 
23 | Cc1c(CCl)sc(-c2cnc(Cl)n2-c2ccc(Cl)cc2)c1Cl [compound 451] | 0 | 0 | 0 | 82 |  | 19 | 0 | 
24 | COc1ccc(F)c(-c2c(Cl)nc(Br)n2-c2ccc(C)cc2)c1F [compound 281] |  |  |  |  |  |  |  | Test C disease control rating ([1]; 200 ppm, 0 = no control): 100%; Test D disease control rating ([2]; 200 ppm, 0 = no control): 100%; Test F disease control rating ([3]; 200 ppm, 0 = no control): 97%; Test G disease control rating ([4]; 200 ppm, 0 = no control): 96%; Test I disease control rating ([6]; 200 ppm, 0 = no control): 100%; Test J disease control rating ([7]; 200 ppm, 0 = no control): 100%
